Data as given in the OPERA property sets (Mansouri et al. 2018).
In brackets after ≈: the same amount, converted by molar mass.

Conditions: 20 °C
In the case of `ClC(Br)CBr` (stereo not given), the solubility is reported as 2.79 mM (≈ 620 µg/mL).
With `BrCC(Br)Br` the solubility was 1.87 mM (≈ 500 µg/mL).
With `ClC(Br)C(Cl)Br` (stereo not given) the solubility was 2.73 mM (≈ 700 µg/mL).

Same assay, conditions: 24 °C
`FC(F)(Cl)CCl` showed a solubility of 6.3 mM (≈ 850 µg/mL).

Same assay, conditions: 25 °C
Molecule `ClC(Cl)=C(Cl)Cl` has a solubility of 1.21 mM (≈ 200 µg/mL).
Work on `FC(F)(Br)C(F)(F)Br` yielded a solubility of 0.0115 mM (≈ 3 µg/mL).
In the case of `CC(Cl)(Cl)Cl`, the solubility is reported as 11.2 mM (≈ 1490 µg/mL).
With `ClCC(Cl)Cl` the solubility was 33.1 mM (≈ 4420 µg/mL).
Molecule `CCBr` has a solubility of 82 mM (≈ 8940 µg/mL).
Work on `ClC(Cl)C(Cl)(Cl)Cl` yielded a solubility of 2.37 mM (≈ 480 µg/mL).
With `CCI` the solubility was 25.1 mM (≈ 3910 µg/mL).
For `C=C(Cl)Cl`, the solubility was 23.2 mM (≈ 2250 µg/mL).
For `FC(F)(F)C(Cl)Cl`, the solubility was 13.7 mM (≈ 2100 µg/mL).
Work on `ClCC(Cl)(Cl)Cl` yielded a solubility of 6.38 mM (≈ 1070 µg/mL).
`BrC(Br)C(Br)Br` showed a solubility of 1.91 mM (≈ 659 µg/mL).
Molecule `FCCCl` has a solubility of 296 mM (≈ 24400 µg/mL).
`FC(F)(F)C(Cl)Br` (stereo not given) showed a solubility of 19.8 mM (≈ 3900 µg/mL).
With `ClCCBr` the solubility was 48.1 mM (≈ 6900 µg/mL).
Work on `CCCl` yielded a solubility of 88 mM (≈ 5680 µg/mL).
Work on `CC(F)(Cl)Cl` yielded a solubility of 3.59 mM (≈ 420 µg/mL).
